Like-named read-outs stand apart in the source and are kept apart here.
Experiments:
M2 muscarinic receptor = biological target: T1, M2 muscarinic receptor (Rattus norvegicus, UniProt P10980); experiment: Radioligand binding assay, [3H]-N-methylscopolamine, rat heart membranes
T1 construct: Submandibular glands and heart were isolated and placed in ice cold homogenising buffer; from tissue; host or cells: rat heart membrane homogenate
T1 sequence (P10980 1-466): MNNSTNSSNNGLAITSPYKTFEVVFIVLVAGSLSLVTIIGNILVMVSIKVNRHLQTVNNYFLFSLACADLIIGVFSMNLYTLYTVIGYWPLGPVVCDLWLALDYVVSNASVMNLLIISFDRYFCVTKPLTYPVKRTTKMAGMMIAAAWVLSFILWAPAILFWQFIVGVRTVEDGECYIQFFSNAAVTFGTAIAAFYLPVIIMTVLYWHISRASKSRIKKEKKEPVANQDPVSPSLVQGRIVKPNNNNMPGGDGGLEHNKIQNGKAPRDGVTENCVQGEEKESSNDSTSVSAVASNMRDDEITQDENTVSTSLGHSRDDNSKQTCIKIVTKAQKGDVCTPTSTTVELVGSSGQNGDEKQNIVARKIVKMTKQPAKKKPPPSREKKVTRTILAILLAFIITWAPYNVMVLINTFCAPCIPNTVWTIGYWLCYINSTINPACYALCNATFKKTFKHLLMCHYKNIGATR

M3 muscarinic receptor [1] = biological target: T2, M3 muscarinic receptor (Rattus norvegicus, UniProt P08483); details: for Ki: read-out: Receptor Binding Assay Ki (nM) M3
M3 muscarinic receptor [2] = biological target: T2, M3 muscarinic receptor; experiment: biochemical
[3] = read-out: Receptor Binding Assay Ki (nM) M2

T2 sequence (P08483 whole entry): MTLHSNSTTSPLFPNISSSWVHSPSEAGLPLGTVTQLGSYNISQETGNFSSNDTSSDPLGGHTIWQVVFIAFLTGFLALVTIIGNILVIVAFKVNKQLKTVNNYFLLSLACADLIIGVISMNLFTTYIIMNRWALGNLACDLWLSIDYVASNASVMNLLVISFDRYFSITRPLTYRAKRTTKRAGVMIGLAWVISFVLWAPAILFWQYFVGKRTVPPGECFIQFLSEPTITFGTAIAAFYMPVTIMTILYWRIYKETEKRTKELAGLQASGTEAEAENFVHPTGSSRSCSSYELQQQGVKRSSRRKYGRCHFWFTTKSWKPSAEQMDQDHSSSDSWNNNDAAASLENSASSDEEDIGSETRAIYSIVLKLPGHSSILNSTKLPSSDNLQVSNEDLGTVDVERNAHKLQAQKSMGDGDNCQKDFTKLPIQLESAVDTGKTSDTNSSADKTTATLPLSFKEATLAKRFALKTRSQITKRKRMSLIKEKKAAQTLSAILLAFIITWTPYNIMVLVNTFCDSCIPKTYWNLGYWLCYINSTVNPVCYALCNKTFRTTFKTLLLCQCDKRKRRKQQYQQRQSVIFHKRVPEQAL

Row | Compound | Ki (M2 muscarinic receptor; [3]) | Selectivity (M2/M3) (M3 muscarinic receptor [1]) | Ki (M3 muscarinic receptor [1]) | Ki (M2 muscarinic receptor) | Ki (M3 muscarinic receptor [2])
1 | 4-[(1S,5R)-2-methyl-3-azabicyclo[3.1.0]hex-3-yl]-but-2-ynyl-2-cyclohexyl-2-hydroxyphenylacetate [Compound No. 18] | 185 nM | 7.708 | 24 nM | – | –
2 | 4-[(1S,5R)-2-methyl-3-azabicyclo[3.1.0]hex-3-yl]-but-2-ynyl-2-cyclopentyl-2-hydroxyphenylacetate [Compound No. 17] | 142 nM | 3.641 | 39 nM | – | –
3 | O=C(NCC#CCN1C[C@H]2C[C@H]2C1)C(O)(c1ccccc1)C1CCCCC1 (stereo partly drawn) [Compound No. 9, N-{4-[(1R, 5S)-3-azabicyclo[3.1.0]-hex-3-yl]but-2-ynyl}-2-hydroxy-2-cyclohexyl-2-phenylacetamide] | – | – | – | 3580 nM | –
4 | O=C(NCC#CCN1C[C@H]2C[C@H]2C1)C(O)(c1ccccc1)C1CCCC1 (stereo partly drawn) [Compound No. 10, N-{4-[(1R, 5S)-3-azabicyclo[3.1.0]-hex-3-yl]but-2-ynyl}-2-hydroxy-2-cyclopentyl-2-phenylacetamide] | – | 1.28 | – | 425 nM | 330 nM
5 | O=C(NCC#CCN1C[C@H]2C[C@H]2C1)C(O)(c1ccccc1)c1ccccc1 [Compound No. 11, N-{4-[(1R, 5S)-3-azabicyclo[3.1.0]-hex-3-yl]but-2-ynyl}-2-hydroxy-2,2-diphenylacetamide] | – | – | – | 639 nM | –
6 | O=C(NCC#CCN1C[C@H]2C[C@H]2C1)C(O)(c1ccc(F)cc1)c1ccc(F)cc1 [Compound No. 12, N-{4-[(1R,5S)-3-azabicyclo[3.1.0]-hex-3-yl]-but-2-ynyl}2-hydroxy-bis(4-florophenyl)acetamide] | – | – | – | 736 nM | –

Source: patent US7265147B2, “3,6-disubstituted azabicyclo [3.1.0]hexane derivatives useful as muscarinic receptor antagonists” (Ranbaxy Laboratories Limited, priority 2002, dated 2007)
